Results taken from publication PMC5473904, “Epigenetic and antitumor effects of platinum(IV)-octanoato conjugates” (Scientific Reports, 2017).

Assays:
[1] = test system: HCT-116 cells; assay: Cellular platinum accumulation/distribution by ICP-MS; type: cell-based, human; details: HCT-116, 24 h, 0.35 µM
[2] = test system: DNMT enzymes in HCT-116 cells; assay: DNMT activity in nuclear extracts of treated cells; type: cell-based, human; details: 24 h
Method: In these experiments, the total activity of DNMT enzymes was determined in nuclear extracts prepared from HCT-116 cells which were treated with the platinum compounds, free OA or decitabine for 24 h (Fig. 4B).
Human colon carcinoma cells (HCT-116) were seeded in 100 mm culture dishes at the density 1.5 × 10^6 cells/dish. Cells were harvested after 24 h of incubation with the compounds tested in the present work (1 µM). Nuclear extracts from the pellets were separated using EpiQuik Nuclear extraction kit I (Epigentek, NY) according to manufacturer’s instructions. Quantification of nuclear proteins was analyzed with the standard Bradford assay. The activity of DNMT enzymes was analyzed using the EpiQuik DNMT activity/inhibition assay Ultra kit (Epigentek, NY), according to the manufacturer´s protocol. Briefly, 10 µg of total nuclear protein was analyzed for its DNMT activity. The reaction time with a universal DNMT substrate stably coated onto microplate wells was 120 min at 37 °C. The final signal at the end of the ELISA reaction was detected at 450 nm (reference 620 nm). DNMT activity was normalized to controls and expressed in the percent or absolute values as OD h^−1 mg^−1, calculated as described in the manufacturer’s manual.

[3] = test system: A2780 human ovarian carcinoma cells; assay: MTT cytotoxicity, 72 h; type: cell-based; details: for IC50: MTT, 72 h, platinum complexes
[4] = test system: HCT-116 cells; assay: Cellular platinum accumulation/distribution by ICP-MS; type: cell-based, human; details: for Total cellular platinum accumulation: HCT-116, 24 h exposure, 0.35 µM
Method: (§1) Cellular concentrations of platinum were determined by inductively coupled plasma mass spectrometry (ICP-MS) after 24 h of exposure to the complexes at the concentration of 0.35 µM.
(§2) Cellular uptake studies were also carried out to measure the accumulation of platinum species in cytosol and nucleus. […] The platinum levels in each pool were measured by ICP-MS. The extent of accumulation of both OA conjugated Pt(IV) prodrugs into the cytosol and nucleus fractions was markedly higher than that of cisplatin or Pt(IV)diAc.
(§3) The cells were seeded in 150 cm^2 culture flasks at a density 1 × 10^7 cells/flask (67 000 cells/cm^2). After 48-h incubation, the cells were treated with the compounds (0.35 μM) for 24 h. The attached cells were washed twice with PBS (4 °C). Seventy-five percent of cells were used for analysis of platinum bound to DNA, remaining 25% were used for estimations of cellular accumulation of platinum. Cell pellets were digested by a high-pressure microwave digestion system (MARS5, CEM) with HCl to give a fully homogenized solution, and final platinum content was determined by ICP-MS. The analysis with the aid of ICP-MS was performed using Agilent 7500 (Agilent, Japan) or Thermo Optek X Series.
(§4) A2780 cells were seeded in 100 mm tissue culture dishes (3 × 10^6 cells) and grown for 48 h to 80–90% confluence. Cells were harvested after 24 h of treatment. Concretely, the dishes were washed two times with ice-cold PBS and the cells scraped into tubes and centrifuged for 10 min at 0 °C (200 g). The pellets were resuspended in the lysis buffer [Tris·HCl (10 mM, pH 8.0), KCl (60 mM), EDTA (1.2 mM), DTT (1 mM), phenylmethanesulfonyl fluoride (PMSF, 0.1 mM), NP-40 (0.04%)] for 10 min on ice and centrifuged for 4 min at 0 °C (800 g). Cytosolic fraction was separated for platinum ICP-MS analysis, and protein concentration was determined by Bradford assay. The pellets were rinsed with the above lysis buffer without PMSF and NP-40 and centrifuged for another 4 min at 0 °C (300 g). The pellets were resuspended in 50 µL nuclear extraction buffer [Tris·HCl (20 mM, pH 8.0), NaCl (420 mM), MgCl2 (0.7 mM), EDTA (0.25 mM), glycerol (25%)] and incubated for 30 min at 4 °C, continuously mixed on end-over-end roller, and then centrifuged for 15 min at 0 °C (13000 g). Protein concentration in nuclear extracts was determined by the Bradford assay, and stored at −80 °C until analysis.

[5] = test system: A2780 cells; assay: as above; type: cell-based, human; details: for Platinum in cytosol / Platinum in nucleus: A2780, 24 h; for Platinum in cytosol / Platinum in nucleus / Total cellular platinum accumulation: 0.35 µM; for Total cellular platinum accumulation: A2780, 24 h exposure
Method: as §1, §2, §3, §4

[6] = test system: DNA from HCT-116 cells; assay: Platinum content on DNA isolated from treated cells (ICP-MS); type: cell-based, human; details: for Platinum content on DNA / Platinum on DNA, % from the total intracellular Pt amount: HCT-116, 24 h, 0.35 µM; for Platinum on DNA, % from the total intracellular Pt amount: rough estimate from Tables 2 and 3
Method: (§5) As for antitumor cisplatin and its direct derivatives, DNA is believed to be the target also for Pt(IV) prodrugs examined in the present work.
(§6) The cells were seeded in 150 cm^2 culture flasks at a density 1 × 10^7 cells/flask (67 000 cells/cm^2). After 48-h incubation, the cells were treated with the compounds (0.35 μM) for 24 h. The attached cells were washed twice with PBS (4 °C). As mentioned in the preceding paragraph, 75% of cells were used for analysis of platinum bound to DNA, remaining 25% were used for estimations of cellular accumulation of platinum. Cells were then lysed in DNAzol (DNAzol® genomic DNA isolation reagent, MRC) supplemented with RNase A (100 μg mL^−1). The genomic DNA was precipitated from the lysate with ethanol, dried and resuspended in water. The DNA content in each sample was determined by UV spectrophotometry. The DNA samples were digested in the presence of hydrochloric acid (11 M) using high-pressure microwave mineralization system (MARS5, CEM). The platinum content was determined by ICP-MS. Experiments were performed in triplicate and the values are the means ± SD.

[7] = test system: DNA from A2780 cells; assay: as above; type: cell-based, human; details: for Platinum content on DNA / Platinum on DNA, % from the total intracellular Pt amount: A2780, 24 h, 0.35 µM; for Platinum on DNA, % from the total intracellular Pt amount: rough estimate from Tables 2 and 3
Method: as §5, §6

Row | SMILES | Platinum in cytosol [1] [pg Pt/µg protein] | Platinum in nucleus [1] [pg Pt/µg protein] | Activity of DNMT enzymes ([2]; HCT-116, 1.0 µM) | IC50 [3] [nM] | Total cellular platinum accumulation [4] [ng Pt/10^6 cells] | Platinum in cytosol [5] [pg Pt/µg protein] | Platinum in nucleus [5] [pg Pt/µg protein] | Total cellular platinum accumulation [5] [ng Pt/10^6 cells] | Platinum content on DNA [6] [pg Pt/µg DNA] | Platinum on DNA, % from the total intracellular Pt amount [6] [%] | Platinum content on DNA [7] [pg Pt/µg DNA] | Platinum on DNA, % from the total intracellular Pt amount [7] [%] | also measured
1 | CC(=O)[O][Pt]([NH2])([NH2])([Cl])([Cl])[O]C(C)=O [Pt(IV)diAc, cis, cis, trans-[Pt(IV)(NH3)2Cl2(Ac)2]] | 2.1 ± 0.3 | 4.6 ± 0.5 | no significant effect | 5300 ± 1000 | 0.19 ± 0.04 | 3.0 ± 0.4 | 3.0 ± 0.5 | 0.45 ± 0.09 | 1.3 ± 0.1 | 2.0 | 1.1 ± 0.4 | 1.9 | 
2 | CCCCCCCC(=O)[O][Pt]([NH2])([NH2])([Cl])([Cl])[O]C(=O)CCCCCCC [Pt(IV)diOA, cis, cis, trans-[Pt(IV)(NH3)2Cl2(OA)2]] | 59 ± 7 | 189 ± 9 | enhanced activity of DNMT enzymes | 41 ± 1 | 29.2 ± 0.3 | 138 ± 12 | 173 ± 15 | 12.9 ± 0.3 | 123.1 ± 5.1 | 11.9 | 43.3 ± 5.3 | 13.0 | Activity of DNMT enzymes ([2]; HCT-116, 0.5 µM): enhanced activity of DNMT enzymes; Increase of cytotoxicity vs. cisplatin ([3]; A2780, Fig. 2A): 68 x; Increase of cytotoxicity vs. Pt(IV)diAc ([3]; A2780, Fig. 2C): 129 x; Increase of cellular accumulation vs. cisplatin ([4]; HCT-116, Fig. 2B): 34 x; Increase of cellular accumulation vs. Pt(IV)diAc ([4]; HCT-116, Fig. 2D): 153 x; Increase of cellular accumulation vs. cisplatin ([5]; A2780, Fig. 2A): 16 x; Increase of cellular accumulation vs. Pt(IV)diAc ([5]; A2780, Fig. 2C): 29 x; Increase of DNA platination vs. cisplatin ([6]; HCT-116, Fig. 2B): 77 x; Increase of DNA platination vs. Pt(IV)diAc ([6]; HCT-116, Fig. 2D): 95 x; Increase of DNA platination vs. cisplatin ([7]; A2780, Fig. 2A): 28 x; Increase of DNA platination vs. Pt(IV)diAc ([7]; A2780, Fig. 2C): 39 x
3 | N.N.[Cl][Pt][Cl] [cisplatin, reference compound] | 3.6 ± 0.2 | 4.1 ± 0.3 | no significant effect | 2800 ± 100 | 0.9 ± 0.1 | 5.5 ± 0.9 | 3.0 ± 0.7 | 0.8 ± 0.2 | 1.6 ± 0.2 | 2.2 | 1.5 ± 0.6 | 2.0 | Activity of DNMT enzymes ([2]; HCT-116, 30 µM): no significant effect
